Data on three compounds can be found in article PMC2654718 (Biochemistry, 2009).

Molecules are shown by their SMILES.

For series [1] the following is noted: mice; cited from earlier work.
Series [2] has as its system serum vitamin D binding protein. The following applies: cited from earlier work.
The target of the next series is T1, VDR-LBD (Homo sapiens, UniProt P11473, DEL165-215).
T1 sequence (P11473 with tags, fused parts or gaps DEL165-215 limits assumed): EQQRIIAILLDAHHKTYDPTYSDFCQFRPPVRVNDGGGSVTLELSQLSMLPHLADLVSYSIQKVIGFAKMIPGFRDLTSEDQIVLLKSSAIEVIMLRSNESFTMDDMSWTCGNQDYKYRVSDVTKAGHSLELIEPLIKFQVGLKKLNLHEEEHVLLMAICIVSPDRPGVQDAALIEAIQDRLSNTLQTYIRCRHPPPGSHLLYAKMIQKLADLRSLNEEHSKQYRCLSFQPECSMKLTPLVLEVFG
Kind of series: Isothermal titration calorimetry of SRC2-3 peptides with VDR-LBD. The following applies: 25 °C, 20 mM HEPES pH 7.5, 150 mM NaCl; for n: ITC stoichiometry; for ΔH: ITC. Background: In ITC the heat of successive injections is recorded.

The target of a further series is T2, MBP-VDR-LBDmt (Homo sapiens, UniProt P11473, DEL165-215).
T2 sequence (P11473 with tags, fused parts or gaps DEL165-215 limits assumed): T1 sequence (P11473 with tags, fused parts or gaps DEL165-215 limits assumed)
The series can be described thus: Fluorescence polarization peptide binding assay. The following applies: FP.

`CCC(CC)(c1ccc(OCC(O)CO)c(C)c1)c1ccc(OCC(O)C(C)(C)C)c(C)c1` (centres unmarked) [LG190178]: in series [1], the “Influence on calcium serum levels (in words)” value is listed as “no influence”. In addition, in series [2], the “Binding to serum vitamin D binding protein (in words)” value is “does not bind”.

At VDR-LBD, `CC(C)C[C@H](NC(=O)[C@H](C)NC(=O)[C@H](CC(N)=O)NC(=O)[C@H](CCC(=O)O)NC(=O)[C@H](CCCCN)NC(=O)[C@H](CCCCN)NC(=O)[C@H](CCCCN)NC(=O)[C@@H](N)CS)C(=O)N[C@@H](CC(C)C)C(=O)N[C@@H](CCCNC(=N)N)C(=O)N[C@@H](Cc1ccc(O)cc1)C(=O)N[C@@H](CC(C)C)C(=O)N[C@@H](CC(C)C)C(=O)N[C@@H](CC(=O)O)C(=O)N[C@@H](CCCCN)C(=O)N[C@@H](CC(=O)O)C(=O)N[C@@H](CC(=O)O)C(=O)N[C@H](C(=O)N[C@@H](CCCCN)C(=O)N[C@@H](CC(=O)O)C(=O)O)[C@@H](C)O` [SRC2-3] gave a n of 1.02±0.02 and a ΔH of -6.7 ± 0.3 kcal/mol. Further, the “Binding affinity towards VDR (in words)” value on MBP-VDR-LBDmt (in the presence of ligand) is “High affinity binding”. The “Binding in the absence of ligand (in words)” value on MBP-VDR-LBDmt (no ligand, no plateau at higher protein concentrations) is on record as “weak or no binding”.

Take `CC(C)C[C@H](NC(=O)[C@H](C)NC(=O)[C@H](CC(N)=O)NC(=O)[C@H](CCC(=O)O)NC(=O)[C@H](CCCCN)NC(=O)[C@H](CCCCN)NC(=O)[C@H](CCCCN)NC(=O)[C@@H](N)CSC1CC(=O)N(CCNS(=O)(=O)c2ccc(C3=c4cc5c6c(c4Oc4c3cc3c7c4CCCN7CCC3)CCC[N+]=6CCC5)c(S(=O)(=O)[O-])c2)C1=O)C(=O)N[C@@H](CC(C)C)C(=O)N[C@@H](CCCNC(=N)N)C(=O)N[C@@H](Cc1ccc(O)cc1)C(=O)N[C@@H](CC(C)C)C(=O)N[C@@H](CC(C)C)C(=O)N[C@@H](CC(=O)O)C(=O)N[C@@H](CCCCN)C(=O)N[C@@H](CC(=O)O)C(=O)N[C@@H](CC(=O)O)C(=O)N[C@H](C(=O)N[C@@H](CCCCN)C(=O)N[C@@H](CC(=O)O)C(=O)O)[C@@H](C)O` (some centres unmarked) [SRC2-3_Texas-Red]: at VDR-LBD, the n is listed as 0.93±0.04 and the ΔH is -2.2 ± 0.12 kcal/mol.
